Results from ChEMBL document CHEMBL3991601, “The target landscape of clinical kinase drugs” (Science, 2017).
Active and inactive are the calls of the source.

What was measured:
[1] = target: Deoxycytidine kinase (Homo sapiens, UniProt P27707)
[2] = target: T1, Ephrin type-B receptor 2 (Homo sapiens, UniProt P29323)
T1 sequence (P29323 whole entry): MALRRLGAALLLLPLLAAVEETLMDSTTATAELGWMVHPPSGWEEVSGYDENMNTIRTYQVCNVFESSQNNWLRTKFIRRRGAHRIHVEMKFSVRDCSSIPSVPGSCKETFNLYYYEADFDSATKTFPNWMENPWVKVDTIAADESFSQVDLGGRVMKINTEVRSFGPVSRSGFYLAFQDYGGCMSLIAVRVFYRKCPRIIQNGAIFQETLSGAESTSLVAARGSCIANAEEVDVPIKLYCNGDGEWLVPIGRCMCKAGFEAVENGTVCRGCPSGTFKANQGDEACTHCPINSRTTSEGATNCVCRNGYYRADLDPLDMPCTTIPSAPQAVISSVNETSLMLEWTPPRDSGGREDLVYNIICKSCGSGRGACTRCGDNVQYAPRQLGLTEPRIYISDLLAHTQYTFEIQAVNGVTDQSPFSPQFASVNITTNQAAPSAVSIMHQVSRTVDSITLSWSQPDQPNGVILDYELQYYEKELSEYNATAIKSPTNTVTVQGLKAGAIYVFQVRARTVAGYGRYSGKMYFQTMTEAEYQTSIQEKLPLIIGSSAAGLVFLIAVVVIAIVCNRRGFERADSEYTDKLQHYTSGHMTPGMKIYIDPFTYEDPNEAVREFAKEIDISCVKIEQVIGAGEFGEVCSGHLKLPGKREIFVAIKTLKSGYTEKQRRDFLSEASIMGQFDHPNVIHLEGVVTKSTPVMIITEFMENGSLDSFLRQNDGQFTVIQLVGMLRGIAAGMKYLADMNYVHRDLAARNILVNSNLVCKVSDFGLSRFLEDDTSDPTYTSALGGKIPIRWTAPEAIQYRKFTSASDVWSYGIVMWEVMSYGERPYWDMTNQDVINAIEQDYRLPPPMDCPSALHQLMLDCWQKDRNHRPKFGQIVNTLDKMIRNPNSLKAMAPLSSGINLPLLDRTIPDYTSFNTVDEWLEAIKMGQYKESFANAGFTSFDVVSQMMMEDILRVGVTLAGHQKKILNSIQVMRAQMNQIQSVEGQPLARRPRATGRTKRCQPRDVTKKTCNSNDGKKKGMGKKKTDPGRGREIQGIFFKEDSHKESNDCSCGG

[3] = target: Insulin-like growth factor 1 receptor (Homo sapiens, UniProt P08069)
[4] = target: Dual specificity mitogen-activated protein kinase kinase 2 (Homo sapiens, UniProt P36507)
[5] = target: T2, Acyl-CoA dehydrogenase family member 10 (Homo sapiens, UniProt Q6JQN1)
T2 sequence (Q6JQN1 whole entry): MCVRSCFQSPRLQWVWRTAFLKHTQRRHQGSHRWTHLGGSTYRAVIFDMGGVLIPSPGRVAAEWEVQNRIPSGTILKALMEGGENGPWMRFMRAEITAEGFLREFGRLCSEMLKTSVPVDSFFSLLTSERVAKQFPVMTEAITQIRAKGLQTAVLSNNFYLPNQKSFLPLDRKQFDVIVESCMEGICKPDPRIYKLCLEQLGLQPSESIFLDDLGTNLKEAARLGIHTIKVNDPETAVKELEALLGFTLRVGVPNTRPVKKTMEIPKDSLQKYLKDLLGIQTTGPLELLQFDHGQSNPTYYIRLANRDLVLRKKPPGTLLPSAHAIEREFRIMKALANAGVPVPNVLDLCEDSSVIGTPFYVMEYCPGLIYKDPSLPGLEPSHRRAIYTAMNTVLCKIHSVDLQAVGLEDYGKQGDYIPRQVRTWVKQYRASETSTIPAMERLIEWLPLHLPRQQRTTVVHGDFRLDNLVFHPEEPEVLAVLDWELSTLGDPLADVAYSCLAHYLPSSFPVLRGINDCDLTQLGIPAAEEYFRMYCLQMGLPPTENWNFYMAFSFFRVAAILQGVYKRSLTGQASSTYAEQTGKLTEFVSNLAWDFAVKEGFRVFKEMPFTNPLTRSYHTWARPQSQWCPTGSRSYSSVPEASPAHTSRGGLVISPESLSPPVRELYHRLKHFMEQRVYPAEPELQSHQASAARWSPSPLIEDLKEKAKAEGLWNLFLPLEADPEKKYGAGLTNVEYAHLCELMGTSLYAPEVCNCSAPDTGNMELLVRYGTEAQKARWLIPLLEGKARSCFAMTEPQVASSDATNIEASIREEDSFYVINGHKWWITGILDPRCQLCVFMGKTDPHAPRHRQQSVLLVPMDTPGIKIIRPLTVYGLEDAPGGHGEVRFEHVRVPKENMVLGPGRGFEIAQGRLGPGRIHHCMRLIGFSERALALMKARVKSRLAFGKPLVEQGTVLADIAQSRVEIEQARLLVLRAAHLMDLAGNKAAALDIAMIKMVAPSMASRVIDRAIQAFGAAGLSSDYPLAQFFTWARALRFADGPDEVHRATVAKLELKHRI
Also: in the data inactive means no Kd found up to 30 µM.

Chain of Insulin-like growth factor 1 receptor (P08069 31-736 limits assumed): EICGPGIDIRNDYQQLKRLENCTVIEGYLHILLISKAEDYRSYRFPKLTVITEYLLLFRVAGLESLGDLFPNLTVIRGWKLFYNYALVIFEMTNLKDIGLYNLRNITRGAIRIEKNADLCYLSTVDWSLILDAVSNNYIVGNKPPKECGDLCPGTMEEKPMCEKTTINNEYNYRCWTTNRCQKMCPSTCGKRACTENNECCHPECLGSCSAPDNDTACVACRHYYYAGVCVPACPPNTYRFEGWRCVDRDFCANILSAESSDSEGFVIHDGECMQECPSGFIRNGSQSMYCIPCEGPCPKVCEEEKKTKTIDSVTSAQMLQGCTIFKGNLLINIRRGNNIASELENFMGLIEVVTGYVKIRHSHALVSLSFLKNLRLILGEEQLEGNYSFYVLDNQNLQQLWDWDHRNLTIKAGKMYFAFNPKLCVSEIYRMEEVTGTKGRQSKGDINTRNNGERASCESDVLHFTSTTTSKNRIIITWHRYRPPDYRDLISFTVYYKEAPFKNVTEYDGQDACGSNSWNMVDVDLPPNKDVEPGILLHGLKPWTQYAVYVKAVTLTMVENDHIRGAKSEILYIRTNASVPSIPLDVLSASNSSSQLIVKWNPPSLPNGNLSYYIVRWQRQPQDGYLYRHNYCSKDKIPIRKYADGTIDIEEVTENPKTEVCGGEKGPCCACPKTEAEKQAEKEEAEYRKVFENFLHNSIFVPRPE
Chain of Insulin-like growth factor 1 receptor (P08069 741-1367 limits assumed): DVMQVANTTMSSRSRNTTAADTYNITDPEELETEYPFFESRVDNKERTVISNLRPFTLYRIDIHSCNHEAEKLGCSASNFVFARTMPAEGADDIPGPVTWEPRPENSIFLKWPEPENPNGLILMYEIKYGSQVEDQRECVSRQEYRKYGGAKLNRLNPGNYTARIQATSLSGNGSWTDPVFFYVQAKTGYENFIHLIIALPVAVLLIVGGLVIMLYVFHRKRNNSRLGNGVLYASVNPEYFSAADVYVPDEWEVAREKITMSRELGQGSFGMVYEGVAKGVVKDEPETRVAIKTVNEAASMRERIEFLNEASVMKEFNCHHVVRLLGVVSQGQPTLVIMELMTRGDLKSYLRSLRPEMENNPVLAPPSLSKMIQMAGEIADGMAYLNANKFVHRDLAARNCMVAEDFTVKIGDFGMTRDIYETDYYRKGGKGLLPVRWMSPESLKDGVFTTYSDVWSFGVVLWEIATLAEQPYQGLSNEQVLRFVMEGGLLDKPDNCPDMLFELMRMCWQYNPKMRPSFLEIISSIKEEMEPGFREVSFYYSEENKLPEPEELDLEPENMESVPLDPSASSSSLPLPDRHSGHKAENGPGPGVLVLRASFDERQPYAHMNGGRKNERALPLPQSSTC
Chain of Dual specificity mitogen-activated protein kinase kinase 2 (P36507 whole entry): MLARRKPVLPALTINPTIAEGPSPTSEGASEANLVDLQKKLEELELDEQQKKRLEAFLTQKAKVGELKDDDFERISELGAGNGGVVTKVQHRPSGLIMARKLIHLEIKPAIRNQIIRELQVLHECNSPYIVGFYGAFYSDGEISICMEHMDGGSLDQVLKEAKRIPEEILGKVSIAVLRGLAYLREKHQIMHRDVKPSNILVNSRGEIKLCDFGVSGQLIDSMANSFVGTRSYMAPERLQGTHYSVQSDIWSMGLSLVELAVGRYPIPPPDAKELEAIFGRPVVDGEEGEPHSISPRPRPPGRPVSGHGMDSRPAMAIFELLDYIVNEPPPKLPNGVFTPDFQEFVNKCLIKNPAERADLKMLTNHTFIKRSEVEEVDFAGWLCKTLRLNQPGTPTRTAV
Chain of Deoxycytidine kinase (P27707 whole entry): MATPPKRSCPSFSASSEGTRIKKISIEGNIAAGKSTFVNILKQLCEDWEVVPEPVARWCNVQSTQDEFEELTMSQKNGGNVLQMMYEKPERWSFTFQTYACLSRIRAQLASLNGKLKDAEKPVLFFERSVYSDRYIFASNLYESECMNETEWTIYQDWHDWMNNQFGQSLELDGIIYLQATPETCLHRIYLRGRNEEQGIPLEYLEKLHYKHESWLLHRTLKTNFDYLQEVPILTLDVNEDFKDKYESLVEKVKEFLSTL

Kd [1]	Kd [2]	Kd [3]	Kd [4]	Kd [5]	SMILES
> 30 µM (inactive)	> 30 µM (inactive)	> 30 µM (inactive)	> 30 µM (inactive)	–	Cn1ncc(Cl)c1-c1cc(C(=O)N[C@H](CN)Cc2cccc(F)c2)sc1Cl [AFURESERTIB]
> 30 µM (inactive)	> 30 µM (inactive)	> 30 µM (inactive)	> 30 µM (inactive)	> 30 µM (inactive)	COC(=O)N[C@@H](C)CNc1nccc(-c2cn(C(C)C)nc2-c2cc(Cl)cc(NS(C)(=O)=O)c2F)n1 [ENCORAFENIB]
> 30 µM (inactive)	> 30 µM (inactive)	> 30 µM (inactive)	> 30 µM (inactive)	> 30 µM (inactive)	CCCS(=O)(=O)Nc1ccc(F)c(C(=O)c2c[nH]c3ncc(-c4ccc(Cl)cc4)cc23)c1F [VEMURAFENIB]
> 30 µM (inactive)	> 30 µM (inactive)	> 30 µM (inactive)	> 30 µM (inactive)	–	CCN1CCN(Cc2ccc(-c3cc4c(N[C@H](C)c5ccccc5)ncnc4[nH]3)cc2)CC1 [AEE-788]
> 30 µM (inactive)	> 30 µM (inactive)	> 30 µM (inactive)	> 30 µM (inactive)	> 30 µM (inactive)	CC[C@H](Nc1ncnc2[nH]cnc12)c1nc2cccc(F)c2c(=O)n1-c1ccccc1 [IDELALISIB]
> 30 µM (inactive)	> 30 µM (inactive)	> 30 µM (inactive)	–	> 30 µM (inactive)	CNS(=O)(=O)Nc1nccc(Cc2c(C)c3ccc(Oc4ncccn4)cc3oc2=O)c1F [AVUTOMETINIB]
> 30 µM (inactive)	> 30 µM (inactive)	> 30 µM (inactive)	> 30 µM (inactive)	2.47 µM (active)	O=C(O)[C@]1(Cc2cccc(Nc3nccs3)n2)CC[C@@H](Oc2cccc(Cl)c2F)CC1 [MK-5108]
> 30 µM (inactive)	> 30 µM (inactive)	> 30 µM (inactive)	–	> 30 µM (inactive)	CC(=O)Nc1cccc(-n2c(=O)n(C3CC3)c(=O)c3c(Nc4ccc(I)cc4F)n(C)c(=O)c(C)c32)c1 [TRAMETINIB]
> 30 µM (inactive)	> 30 µM (inactive)	> 30 µM (inactive)	> 30 µM (inactive)	> 30 µM (inactive)	CO[C@H]1C[C@@H]2CC[C@@H](C)[C@@](O)(O2)C(=O)C(=O)N2CCCC[C@H]2C(=O)O[C@H]([C@H](C)C[C@@H]2CC[C@@H](OCCO)[C@H](OC)C2)CC(=O)[C@H](C)/C=C(\C)[C@@H](O)[C@@H](OC)C(=O)[C@H](C)C[C@H](C)/C=C/C=C/C=C/1C [EVEROLIMUS]
> 30 µM (inactive)	> 30 µM (inactive)	> 30 µM (inactive)	> 30 µM (inactive)	> 30 µM (inactive)	C[C@@H](Nc1cc(F)cc(F)c1)c1cc(C(=O)N(C)C)cc2c(=O)cc(N3CCOCC3)oc12 [AZD-8186]
> 30 µM (inactive)	> 30 µM (inactive)	> 30 µM (inactive)	> 30 µM (inactive)	> 30 µM (inactive)	CN1N=C(N)c2cn([C@@H]3O[C@H](COP(=O)(O)O)[C@@H](O)[C@H]3O)c3ncnc1c23 [TRICIRIBINE PHOSPHATE]
> 30 µM (inactive)	> 30 µM (inactive)	–	–	> 30 µM (inactive)	OCCn1cc(-c2cnc3nnn(Cc4ccc5ncccc5c4)c3n2)cn1 [PF-04217903]
> 30 µM (inactive)	> 30 µM (inactive)	> 30 µM (inactive)	> 30 µM (inactive)	> 30 µM (inactive)	O=c1sn(-c2cccc3ccccc23)c(=O)n1Cc1ccccc1 [TIDEGLUSIB]
> 30 µM (inactive)	> 30 µM (inactive)	–	–	> 30 µM (inactive)	CCc1cnn2c(NCc3ccc[n+]([O-])c3)cc(N3CCCC[C@H]3CCO)nc12 [DINACICLIB]
> 30 µM (inactive)	> 30 µM (inactive)	> 30 µM (inactive)	> 30 µM (inactive)	> 30 µM (inactive)	CC(C)Nc1cc(-c2c[nH]c(C(=O)N[C@H](CO)c3cccc(Cl)c3)c2)c(Cl)cn1 [ULIXERTINIB]
> 30 µM (inactive)	> 30 µM (inactive)	9.72 µM (active)	> 30 µM (inactive)	–	COc1cc(N2CCC(N3CCN(C)CC3)CC2)ccc1Nc1ncnc(Nc2ccccc2S(=O)(=O)C(C)C)n1 [ASP-3026]
> 30 µM (inactive)	–	–	> 30 µM (inactive)	0.716 µM	Cc1nc(N)sc1-c1ccnc(Nc2ccc(N3CCOCC3)cc2)n1 [CYC-116]
> 30 µM (inactive)	–	–	–	> 30 µM (inactive)	CN1CCN(c2ccc3nc(-c4c(N)c5c(F)cccc5[nH]c4=O)[nH]c3c2)CC1 [DOVITINIB]
> 30 µM (inactive)	> 30 µM (inactive)	> 30 µM (inactive)	> 30 µM (inactive)	–	CNC(=O)c1ccc(C)c(-n2c(C)cc(OCc3ccc(F)cc3F)c(Br)c2=O)c1 [PH-797804]
> 30 µM (inactive)	> 30 µM (inactive)	–	> 30 µM (inactive)	> 30 µM (inactive)	Cc1cc(Nc2cc(N3CCN(C)CC3)nc(/C=C/c3ccccc3)n2)n[nH]1 [ENMD-2076]
0.012 µM (active)	–	–	–	–	Nc1nc(N)c2nc(-c3cccc(O)c3)c(-c3cccc(O)c3)nc2n1 [TG100-115]
> 30 µM (inactive)	> 30 µM (inactive)	> 30 µM (inactive)	5.25 µM (active)	–	O=C1NC(=O)/C(=C/c2ccc3nccc(-c4ccncc4)c3c2)S1 [GSK-1059615]
> 30 µM (inactive)	–	–	–	> 30 µM (inactive)	CCn1c(-c2nonc2N)nc2c(C#CC(C)(C)O)ncc(OC[C@H]3CCCNC3)c21 [GSK-690693]

SMILES	Kd [1]	Kd [2]	Kd [3]	Kd [4]	Kd [5]
Cc1cc(-c2cc(O)ccc2Cl)cc2nnc(Nc3ccc(OCCN4CCCC4)cc3)nc12	> 30 µM (inactive)	0.002 µM (active)	> 30 µM (inactive)	> 30 µM (inactive)	> 30 µM (inactive)
Cc1cn(-c2cc(NC(=O)c3ccc(C)c(Nc4nccc(-c5cccnc5)n4)c3)cc(C(F)(F)F)c2)cn1 [NILOTINIB]	> 30 µM (inactive)	–	–	–	> 30 µM (inactive)
C=CC(=O)N1CCC(Oc2cc3c(Nc4ccc(Cl)c(Cl)c4F)ncnc3cc2OC)CC1 [POZIOTINIB]	> 30 µM (inactive)	2.24 µM (active)	> 30 µM (inactive)	> 30 µM (inactive)	> 30 µM (inactive)
O=C(Nc1cccc(Cl)c1)Nc1ncc(CCNc2ncnc3ccsc23)s1 [SNS-314]	> 30 µM (inactive)	> 30 µM (inactive)	–	–	> 30 µM (inactive)
CN1CC[C@@H](c2c(O)cc(O)c3c(=O)cc(-c4ccccc4Cl)oc23)[C@@H]1CO	> 30 µM (inactive)	> 30 µM (inactive)	> 30 µM (inactive)	> 30 µM (inactive)	> 30 µM (inactive)
COC(=O)[C@@]1(O)C[C@H]2O[C@]1(C)n1c3ccccc3c3c4c(c5c6ccccc6n2c5c31)C(=O)NC4 [K-252A]	> 30 µM (inactive)	> 30 µM (inactive)	> 30 µM (inactive)	–	> 30 µM (inactive)
